Results: PubChem BioAssay AID602267 (Broad Institute, 2012)
Active and inactive are the calls of the source.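 Rule for the calls: active = signal falls with dose and the fitted half-maximal concentration is at or below twice the top valid tested dose; inconclusive = flat curve with 30 to 70% inhibition, or poor fit; inactive = wrong direction, flat within 30%, or potency beyond limit.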

Biological target: Golgi-associated PDZ and coiled-coil motif-containing protein (Homo sapiens) (UniProt Q9HD26)
Assay: blockers of CAL PDZ ligand groove binding – biochemical, fluorescence polarization, untagged CAL PDZ, cherry-pick, dose response (AID 602267)
Conditions: purified CAL PDZ, TMR-peptide fluorescence polarization, 1 h

SMILES	AC50
O=C(O)CSc1cc(NS(=O)(=O)c2ccc(Br)cc2)c2ccccc2c1O	29.7 µM
CCOc1ccc2c(c1)C(NC(C)=O)C(=O)N2CCN1CCOCC1 (stereo unspecified)	> 100 µM (inactive)
COc1ccc(OC)c(-c2c3cc(O)c(=O)cc-3oc3cc(O)c(O)cc23)c1	21.4 µM
CCc1ccc(S(=O)(=O)/N=C2/C=C(Sc3ncn[nH]3)C(=O)c3ccccc32)cc1	16.4 µM

Same assay, conditions: purified CAL PDZ, TMR-peptide fluorescence polarization, 1 h; at 16 µM (top of the series)

SMILES	activity change, negative = inhibition
CCOC(=O)C1(Cc2cccc(Cl)c2)CCCN(C(=O)c2cccc(C)n2)C1 (stereo unspecified)	inactive
O=c1[nH]c(CN2CC=C(c3ccccc3)CC2)nc2scc(-c3ccccc3)c12	inactive

Same assay, conditions: purified CAL PDZ, TMR-peptide fluorescence polarization, 1 h; at 50 µM (top of the series)

SMILES	activity change, negative = inhibition
CCC(C)NC(=O)C1CCCN(C(=O)Nc2ccc(F)cc2)C1 (stereo unspecified)	inactive
CC(CN1CCCC1)OC(=O)C(c1ccccc1)c1ccccc1 (stereo unspecified)	inactive
O=C(NNC(=O)c1c(F)cccc1F)c1sccc1-n1cccc1	inactive
COc1cc(NC(=O)c2cccs2)ccc1NC(=O)c1ccccc1Cl	inactive
O=C(c1cc2cc([N+](=O)[O-])ccc2oc1=O)N1CCN(C2CCCCC2)CC1	inactive
O=C(CCN1C(=O)c2ccccc2C1=O)CN1CCOCC1	inactive
c1ccc(C(Nc2cccnc2)c2ccccc2)cc1	inactive
CC(=Nc1ccccc1O)c1sc2ccccc2c1O	inactive
O=[N+]([O-])c1ccc(N/N=C/c2cccnc2)cc1	inactive
COC(=O)[C@H]1[C@H]2C[C@@H]3c4[nH]c5cc(OC)ccc5c4CCN3C[C@H]2C[C@@H](OC(=O)/C=C/c2cc(OC)c(OC)c(OC)c2)[C@@H]1OC	inactive
COc1ccc(OC)c(NC(=O)CS(=O)(=O)Cc2ccccc2)c1	inactive
CCCSC1=N/C(=C\c2ccc([N+](=O)[O-])o2)C(=O)S1	inactive
CN(C(=O)CC1C(=O)NCCN1CC(c1ccccc1)c1ccccc1)C(C1CC1)C1CC1 (stereo unspecified)	inactive
CC(NS(=O)(=O)c1ccc(Cl)c(Cl)c1)C(=O)OCC(=O)Nc1ccc2c(c1)OCO2 (stereo unspecified)	inactive
COc1ccc(/C=N/Nc2cc(C)nc3ccc(OC)cc23)c(OC)c1	inactive
COc1cc(Cl)c(CN2CCCC(CO)(Cc3cccc(Cl)c3)C2)cc1OC (stereo unspecified)	inactive
CC(=O)N1N=C(c2ccccc2)CC1c1ccccc1 (stereo unspecified)	inactive
CCc1nc2ccccc2c(C(=O)Oc2cccc3cccnc23)c1C	inactive
O=S(=O)(/N=C(/Nc1ccc(Cl)c(S(=O)(=O)N2CCOCC2)c1)c1ccc(F)cc1)c1ccccc1	inactive
O=C(O)c1ccc(S(=O)(=O)c2ccc3c(c2)C(=O)N(c2ccccc2[N+](=O)[O-])C3=O)cc1	inactive

SMILES	activity change, negative = inhibition
CC(C)CNC(=O)CC1Nc2ccccc2NC1=O (stereo unspecified)	inactive
Cc1ccc2nc(NC(=O)COC(=O)c3ccncc3)sc2c1	inactive
CC12CCC(C(=O)N(CCCN3CCN(Cc4ccccc4)CC3)C1=O)C2(C)C (stereo unspecified)	inactive
O=C(CSc1nc2c(sc3ccccc32)c(=O)n1Cc1ccccc1)NCC1CCCO1 (stereo unspecified)	inactive
CCOC(=O)C1CCN(C(=O)C2CC(=O)N(c3ccc4c(c3)OCCO4)C2)CC1 (stereo unspecified)	inactive
O=C(NCc1ccccc1Cl)C1CC(=O)N(Cc2ccccc2)C1 (stereo unspecified)	inactive
O=C(c1ccc(F)cc1Cl)N1CCC2(CC1)OCCO2	inactive
O=C(COC(=O)c1cccnc1Cl)Nc1ccc2c(c1)OCO2	inactive
COc1ccc(C(CNC(=O)COc2ccccc2-c2ccccc2)N2CCOCC2)cc1 (stereo unspecified)	inactive
Cc1ccc2nc(CSc3nnc(-c4ccncc4)n3C)cc(=O)n2c1	inactive
CC(=O)c1ccc(S(=O)(=O)N2CCN(c3ccccc3F)CC2)cc1	inactive
O=C1c2ccccc2C(O)N1c1ccccc1 (stereo unspecified)	inactive
CCC1C(=O)NCCN1C(=O)CCc1nnc(CCc2ccc(OC)cc2)o1 (stereo unspecified)	inactive
O=c1c2cc3c(cc2[nH]c(=S)n1CCN1CCOCC1)OCO3	inactive
COCCCNC(=O)c1cc(S(=O)(=O)N2CCOCC2)ccc1SCc1cccc(OC)c1OC	inactive
O=C(NCc1ccccn1)c1ccc(NS(=O)(=O)c2ccccc2)cc1	inactive
CC1(C2CC2)NC(=O)N(CC(=O)NCC(=O)Nc2ccc(F)c(F)c2F)C1=O (stereo unspecified)	inactive
COc1ccc(C(=O)c2ccc(C)cc2)c(OC)c1OC	inactive
O=C(NCc1ccccn1)Nc1ccc(F)c(Cl)c1	inactive
COc1ccc(C(=O)Nc2ccc(S(=O)(=O)N3CCCC3)cc2)cc1[N+](=O)[O-]	inactive
